This experiment has as its target T1, human dopamine D2long receptor (Homo sapiens, UniProt P14416).
T1 construct: expressed in transfected cells; host or cells: GH4C1 rat pituitary cells
Description: Inhibition via dopamine D2 receptors of forskolin-stimulated adenylate cyclase activity (cAMP Flashplate, GH4C1/hD2L cells). Format: cell-based. As to conditions: D2 EC50 value divided by D3 EC50 value; where D2 EC50 was >10000, a figure of 10000 was used. As to the method: A suitable assay for determining functionally the activity of a compound at D3 and/or […] dopamine receptors is detailed hereinbelow. Compounds are evaluated as agonists or antagonists at the dopamine D2 and D3 receptors by looking at cAMP levels in a GH4C1 and CHO cell-line expressing the human D2 and D3 receptors, respectively.
Inhibition Via Dopamine D2 Receptors of Forskolin Stimulated Adenylate Cyclase Activity Materials Cell Culture Media:
4× assay stock of 20 μM made by carrying out a 1000-fold dilution in PBS buffer, 25 μl of the 20 μM stock is added to a final assay volume of 100 μl, giving a final assay concentration of 5 μM.
• Pramipexole is included as a reference standard. A 10-point, semi-log curve is generated every 4 plates. Compound responses are normalised to the minimum (0 nM pramipexole) and maximum (100 nM Pramipexole) responses generated by the cells. All test compounds may also be tested via a 10-point (semi-log) curve. • Test compounds are dissolved in 100% DMSO to yield a stock concentration of 10 mM, (1000× the final assay concentration required, e.g. 10 mM will give a top concentration of 10000 nM). • Pramipexole is dissolved in 100% DMSO to give a concentration of 10 mM. […]

T1 sequence (P14416 whole entry): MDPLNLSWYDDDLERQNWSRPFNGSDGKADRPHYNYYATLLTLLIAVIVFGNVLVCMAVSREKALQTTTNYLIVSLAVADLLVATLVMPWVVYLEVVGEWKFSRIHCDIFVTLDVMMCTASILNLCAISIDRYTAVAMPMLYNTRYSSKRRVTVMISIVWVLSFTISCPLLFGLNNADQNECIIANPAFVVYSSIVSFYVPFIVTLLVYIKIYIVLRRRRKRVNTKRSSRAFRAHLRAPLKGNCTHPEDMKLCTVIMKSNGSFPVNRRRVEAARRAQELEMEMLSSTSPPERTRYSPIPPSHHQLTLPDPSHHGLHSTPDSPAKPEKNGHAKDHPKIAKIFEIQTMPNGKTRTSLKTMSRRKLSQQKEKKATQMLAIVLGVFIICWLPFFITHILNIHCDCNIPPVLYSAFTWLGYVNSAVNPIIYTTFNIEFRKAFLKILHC

As for `CCCN1CCO[C@H](c2cccc(O)c2)C1.Cl` [Example 8, R-(−)-3-(4-Propylmorpholin-2-yl)phenol hydrochloride], the “selectivity for D3 over D2” value is reported as 1315.8 fold.

Values taken from patent US7902188B2, “Morpholine dopamine agonists” (Pfizer Inc., priority 2002, dated 2011).
